Assay results published in patent publication US20070203163A1, “Novel Treatment Of Irritable Bowel Syndrome 1” (priority 2003, published 2007).

Test system: visceromotor response to colorectal distension
Test: Visceromotor response to isobaric colorectal distension in rats
Format: in vivo, rats (Sprague Dawley)
Source text: In this study the effect of acute administration of a compound on the visceromotor response to isobaric colorectal distension in rats is investigated (Ritchie J. Pain from distension of the pelvic colon by inflating a balloon in the irritable bowel syndrome. Gut 1973; 6: 105-112. Ness T J, Gebhart G F. Colorectal distension as a noxious visceral stimulus: physiological and pharmacological characterization of pseudoeffective reflexes in the rat. Brain Research 1988; 450: 153-169).
Colorectal distension (CRD) is performed in all rats (Sprague Dawley) using a paradigm of 12 consecutive distensions (or pulses) at 80 mmHg for 30 seconds each with 4.5 minute intervals (12×80 mmHg). The visceromotor respbnse is determined by quantifying phasic changes in the balloon pressure, which is processed by specially designed computer software. The compound is dissolved in saline and administered at the doses of 1, 3 and 10 μmol/kg. The compound is given intravenously in a volume of 1 mL/kg between the third and fourth distension.

Row | Compound | effect on visceromotor response (VMR) to colorectal distension (1 μmol/kg i.v.) | effect on visceromotor response (VMR) to colorectal distension (3 μmol/kg i.v.) | effect on visceromotor response (VMR) to colorectal distension (10 μmol/kg i.v.) | average visceromotor response (VMR) during colorectal distension, relative to vehicle treated (100±19) (10 μmol/kg i.v., CRD 12×80 mmHg, mean±SEM, n=8) [%]
1 | COCc1cc(C#N)cc(-c2nc(-c3ccc(F)cn3)no2)c1 [3-[3-(5-Fluoro-pyridin-2-yl)-[1,2,4]oxadiazol-5-yl]-5-methoxymethyl-benzonitrile] | transient inhibitory effect |  |  | 
2 | Cc1cccc(C#Cc2ccccc2)n1 [MPEP, 2-methyl-6-(phenylethynyl)-pyridine] | No effect | modest effect during a few distensions only | decreased the visceromotor response (VMR) | 46±11
